Measurements: patent US6573218B1, “Fused-benzene derivatives useful as herbicides” (Ishihara Sangyo Kaisha, Ltd., priority 1998, dated 2003)

Assays:
Assay type in all cases: in vivo
[1] = test system: large crabgrass (Digitaria sanguinalis, DIGSA); assay: Post-emerge greenhouse herbicide test; details: 250 g ai/ha, 14 days after application
In short: (§1)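 Plants grown in sandy loam, sown one day before treatment (pre-emerge) or 8-21 days before, at 2-3 leaf stage (post-emerge). Acetone solutions track-sprayed at 187 l/ha, 15-1000 g ai/ha; post-emerge sprays include 0.25% v/v non-ionic surfactant, pre-emerge units watered after application. Phytotoxicity rated 0-100 at 14 days.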

[2] = test system: common ragweed (Ambrosia artemisiifolia L., AMBEL); assay: Post-emerge greenhouse herbicide test; details: 250 g ai/ha, 14 days after application
In short: as §1

[3] = test system: johnsongrass (Sorghum halepense, SORHA); assay: Post-emerge greenhouse herbicide test; details: 250 g ai/ha, 14 days after application
In short: as §1

[4] = test system: sicklepod (Cassia obtusifolia, CASOB); assay: Post-emerge greenhouse herbicide test; details: 250 g ai/ha, 14 days after application
In short: as §1

[5] = test system: redroot pigweed (Amaranthus retroflexus, AMARE); assay: Post-emerge greenhouse herbicide test; details: 250 g ai/ha, 14 days after application
In short: as §1

[6] = test system: ivyleaf morningglory (Ipomoea hederacea, IPOHE); assay: Post-emerge greenhouse herbicide test; details: 250 g ai/ha, 14 days after application
In short: as §1

[7] = test system: barnyardgrass (Echinochloa crus-galli, ECHCG); assay: Post-emerge greenhouse herbicide test; details: 250 g ai/ha, 14 days after application
In short: as §1

[8] = test system: lambsquarters (Chenopodium album, CHEAL); assay: Post-emerge greenhouse herbicide test; details: 250 g ai/ha, 14 days after application
In short: as §1

[9] = test system: green foxtail (Setaria viridis, SETVI); assay: Post-emerge greenhouse herbicide test; details: 250 g ai/ha, 14 days after application
In short: as §1

[10] = test system: velvetleaf (Abutilon theophrasti, ABUTH); assay: Post-emerge greenhouse herbicide test; details: 250 g ai/ha, 14 days after application
In short: as §1

[11] = test system: soybean (Glycine max L., var. Pella 86, SOY); assay: Pre-emerge greenhouse crop damage test; details: var. Pella 86, soybean (Glycine max L.), in vivo, 14 days
In short: as §1

[12] = test system: field corn (Zea mays L., var. Dekalb 527, CORN); assay: Pre-emerge greenhouse crop damage test; details: var. Dekalb 527, field corn (Zea mays L.), in vivo, 14 days
In short: as §1

[13] = test system: upland rice (Ory0a sp., var.Tebonnet, RICE); assay: Pre-emerge greenhouse crop damage test; details: var. Tebonnet, upland rice (Ory0a sp.), in vivo, 14 days
In short: as §1

[14] = test system: soybean (Glycine max L., var. Pella 86, SOY); assay: Post-emerge greenhouse crop damage test; details: var. Pella 86, soybean (Glycine max L.), in vivo, 14 days
In short: as §1

[15] = test system: field corn (Zea mays L., var. Dekalb 527, CORN); assay: Post-emerge greenhouse crop damage test; details: var. Dekalb 527, field corn (Zea mays L.), in vivo, 14 days
In short: as §1

[16] = test system: upland rice (Ory0a sp., var.Tebonnet, RICE); assay: Post-emerge greenhouse crop damage test; details: var. Tebonnet, upland rice (Ory0a sp.), in vivo, 14 days
In short: as §1

[17] = test system: large crabgrass (Digitaria sanguinalis, DIGSA); assay: Pre-emerge greenhouse herbicide test; details: 250 g ai/ha, 14 days after application, scale 0-100 (0 no damage, 100 complete death)
In short: as §1

[18] = test system: johnsongrass (Sorghum halepense, SORHA); assay: Pre-emerge greenhouse herbicide test; details: 250 g ai/ha, 14 days after application, scale 0-100 (0 no damage, 100 complete death)
In short: as §1

[19] = test system: sicklepod (Cassia obtusifolia, CASOB); assay: Pre-emerge greenhouse herbicide test; details: 250 g ai/ha, 14 days after application, scale 0-100 (0 no damage, 100 complete death)
In short: as §1

[20] = test system: redroot pigweed (Amaranthus retroflexus, AMARE); assay: Pre-emerge greenhouse herbicide test; details: 250 g ai/ha, 14 days after application, scale 0-100 (0 no damage, 100 complete death)
In short: as §1

[21] = test system: ivyleaf morningglory (Ipomoea hederacea, IPOHE); assay: Pre-emerge greenhouse herbicide test; details: 250 g ai/ha, 14 days after application, scale 0-100 (0 no damage, 100 complete death)
In short: as §1

[22] = test system: barnyardgrass (Echinochloa crus-galli, ECHCG); assay: Pre-emerge greenhouse herbicide test; details: 250 g ai/ha, 14 days after application, scale 0-100 (0 no damage, 100 complete death)
In short: as §1

[23] = test system: lambsquarters (Chenopodium album, CHEAL); assay: Pre-emerge greenhouse herbicide test; details: 250 g ai/ha, 14 days after application, scale 0-100 (0 no damage, 100 complete death)
In short: as §1

[24] = test system: green foxtail (Setaria viridis, SETVI); assay: Pre-emerge greenhouse herbicide test; details: 250 g ai/ha, 14 days after application, scale 0-100 (0 no damage, 100 complete death)
In short: as §1

[25] = test system: velvetleaf (Abutilon theophrasti, ABUTH); assay: Pre-emerge greenhouse herbicide test; details: 250 g ai/ha, 14 days after application, scale 0-100 (0 no damage, 100 complete death)
In short: as §1

COC(=O)CC1CNc2c(c(Cl)cc(F)c2-n2c(=O)cc(C(F)(F)F)n(C)c2=O)O1 (centres unmarked) [Compound 2-8, 3-[8-Chloro-6-fluoro-2-(methoxycarbonyl)methyl-3,4-dihydro-2H-1,4-benzoxazin-5-yl]-1-methyl-6-trifluoromethyl-2,4(1H,3H)-pyrimidindione]
Post-emerge Herbicidal Activity DIGSA (phytotoxicity rating 0-100) [1]: 50 | Post-emerge Herbicidal Activity AMBEL (phytotoxicity rating 0-100) [2]: 100 | Post-emerge Herbicidal Activity SORHA (phytotoxicity rating 0-100) [3]: 95 | Post-emerge Herbicidal Activity CASOB (phytotoxicity rating 0-100) [4]: 50 | Post-emerge Herbicidal Activity AMARE (phytotoxicity rating 0-100) [5]: 100 | Post-emerge Herbicidal Activity IPOHE (phytotoxicity rating 0-100) [6]: 100 | Post-emerge Herbicidal Activity ECHCG (phytotoxicity rating 0-100) [7]: 80 | Post-emerge Herbicidal Activity CHEAL (phytotoxicity rating 0-100) [8]: 100 | Post-emerge Herbicidal Activity SETVI (phytotoxicity rating 0-100) [9]: 100 | Post-emerge Herbicidal Activity ABUTH (phytotoxicity rating 0-100) [10]: 100 | Pre-emerge Herbicidal Activity SOY (crop damage rating) [11]: 100 | Pre-emerge Herbicidal Activity CORN (crop damage rating) [12]: 70 | Pre-emerge Herbicidal Activity RICE (crop damage rating) [13]: 50 | Post-emerge crop damage SOY (phytotoxicity rating 0-100) [14]: 100 | Post-emerge crop damage CORN (phytotoxicity rating 0-100) [15]: 70 | Post-emerge crop damage RICE (phytotoxicity rating 0-100) [16]: 90 | Pre-emerge Herbicidal Activity DIGSA (phytotoxicity rating) [17]: 100 | Pre-emerge Herbicidal Activity SORHA (phytotoxicity rating) [18]: 100 | Pre-emerge Herbicidal Activity CASOB (phytotoxicity rating) [19]: 100 | Pre-emerge Herbicidal Activity AMARE (phytotoxicity rating) [20]: 100 | Pre-emerge Herbicidal Activity IPOHE (phytotoxicity rating) [21]: 100 | Pre-emerge Herbicidal Activity ECHCG (phytotoxicity rating) [22]: 60 | Pre-emerge Herbicidal Activity CHEAL (phytotoxicity rating) [23]: 100 | Pre-emerge Herbicidal Activity SETVI (phytotoxicity rating) [24]: 100 | Pre-emerge Herbicidal Activity ABUTH (phytotoxicity rating) [25]: 100

Cc1nc2c(-n3c(=O)cc(C(F)(F)F)n(C)c3=O)c(F)cc(Cl)c2oc1=O [Compound 3-1, 3-(8-Chloro-6-fluoro-3-methyl-2H-1,4-benzoxazin-2-one-5-yl)-1-methyl-6-trifluoromethyl-2,4(1H,3H)-pyrimidindione]
Post-emerge Herbicidal Activity DIGSA (phytotoxicity rating 0-100) [1]: 0 | Post-emerge Herbicidal Activity AMBEL (phytotoxicity rating 0-100) [2]: 20 | Post-emerge Herbicidal Activity SORHA (phytotoxicity rating 0-100) [3]: 0 | Post-emerge Herbicidal Activity CASOB (phytotoxicity rating 0-100) [4]: 0 | Post-emerge Herbicidal Activity AMARE (phytotoxicity rating 0-100) [5]: 70 | Post-emerge Herbicidal Activity IPOHE (phytotoxicity rating 0-100) [6]: 50 | Post-emerge Herbicidal Activity ECHCG (phytotoxicity rating 0-100) [7]: 0 | Post-emerge Herbicidal Activity CHEAL (phytotoxicity rating 0-100) [8]: 60 | Post-emerge Herbicidal Activity SETVI (phytotoxicity rating 0-100) [9]: 0 | Post-emerge Herbicidal Activity ABUTH (phytotoxicity rating 0-100) [10]: 95 | Pre-emerge Herbicidal Activity SOY (crop damage rating) [11]: 0 | Pre-emerge Herbicidal Activity CORN (crop damage rating) [12]: 0 | Pre-emerge Herbicidal Activity RICE (crop damage rating) [13]: 0 | Post-emerge crop damage SOY (phytotoxicity rating 0-100) [14]: 30 | Post-emerge crop damage CORN (phytotoxicity rating 0-100) [15]: 0 | Post-emerge crop damage RICE (phytotoxicity rating 0-100) [16]: 0 | Pre-emerge Herbicidal Activity DIGSA (phytotoxicity rating) [17]: 0 | Pre-emerge Herbicidal Activity SORHA (phytotoxicity rating) [18]: 0 | Pre-emerge Herbicidal Activity CASOB (phytotoxicity rating) [19]: 0 | Pre-emerge Herbicidal Activity AMARE (phytotoxicity rating) [20]: 60 | Pre-emerge Herbicidal Activity IPOHE (phytotoxicity rating) [21]: 0 | Pre-emerge Herbicidal Activity ECHCG (phytotoxicity rating) [22]: 0 | Pre-emerge Herbicidal Activity CHEAL (phytotoxicity rating) [23]: 100 | Pre-emerge Herbicidal Activity SETVI (phytotoxicity rating) [24]: 20 | Pre-emerge Herbicidal Activity ABUTH (phytotoxicity rating) [25]: 100

CCc1nc2c(-n3c(=O)n4n(c3=S)CCC=C4)c(F)cc(Cl)c2o1 [Compound 8-1, 8-(7-Chloro-2-ethyl-5-fluorobenzoxazol-4-yl)-1,6,8-triazabicyclo[4,3,0]2-nonene-9-one-7-thione]
Post-emerge Herbicidal Activity DIGSA (phytotoxicity rating 0-100) [1]: 70 | Post-emerge Herbicidal Activity SORHA (phytotoxicity rating 0-100) [3]: 99 | Post-emerge Herbicidal Activity CASOB (phytotoxicity rating 0-100) [4]: 100 | Post-emerge Herbicidal Activity AMARE (phytotoxicity rating 0-100) [5]: 100 | Post-emerge Herbicidal Activity IPOHE (phytotoxicity rating 0-100) [6]: 100 | Post-emerge Herbicidal Activity ECHCG (phytotoxicity rating 0-100) [7]: 90 | Post-emerge Herbicidal Activity CHEAL (phytotoxicity rating 0-100) [8]: 99 | Post-emerge Herbicidal Activity SETVI (phytotoxicity rating 0-100) [9]: 100 | Post-emerge Herbicidal Activity ABUTH (phytotoxicity rating 0-100) [10]: 100 | Pre-emerge Herbicidal Activity SOY (crop damage rating) [11]: 60 | Pre-emerge Herbicidal Activity CORN (crop damage rating) [12]: 50 | Pre-emerge Herbicidal Activity RICE (crop damage rating) [13]: 20 | Post-emerge crop damage SOY (phytotoxicity rating 0-100) [14]: 100 | Post-emerge crop damage CORN (phytotoxicity rating 0-100) [15]: 80 | Post-emerge crop damage RICE (phytotoxicity rating 0-100) [16]: 80 | Pre-emerge Herbicidal Activity DIGSA (phytotoxicity rating) [17]: 100 | Pre-emerge Herbicidal Activity SORHA (phytotoxicity rating) [18]: 100 | Pre-emerge Herbicidal Activity CASOB (phytotoxicity rating) [19]: 90 | Pre-emerge Herbicidal Activity AMARE (phytotoxicity rating) [20]: 100 | Pre-emerge Herbicidal Activity IPOHE (phytotoxicity rating) [21]: 60 | Pre-emerge Herbicidal Activity ECHCG (phytotoxicity rating) [22]: 90 | Pre-emerge Herbicidal Activity CHEAL (phytotoxicity rating) [23]: 100 | Pre-emerge Herbicidal Activity SETVI (phytotoxicity rating) [24]: 100 | Pre-emerge Herbicidal Activity ABUTH (phytotoxicity rating) [25]: 100
